Where “and” joins values, the source holds several entries; their conditions need not be identical. Identical values can stand only once.
Legend:
[1] = tested on: NF-κB dependent transcription; test: In vivo imaging of basal NF-κB dependent transcription in NF-κB::Luc reporter mice; parameters: species or system mouse; details: male NF-κB::Luc mice, 4 hours, FIG. 2
Protocol: GL1001 was tested for in vivo anti-inflammatory activity by examining its effects on basal levels of NF-κB dependent transcription in mice engineered in the germline with a construct containing an NF-κB enhancer linked to a luciferase gene (i.e., NF-κB::Luc mice), such that this NE-κB reporter construct is present in all cells of the mice.
More particularly, transgenic NF-κB::Luc mice were generated using three NF-κB response elements from the Igκ light chain promoter fused to a firefly luciferase gene as described by Carlsen et al. (2002) J. Immunol. 168:1441-1446. Pronuclear microinjection of purified construct DNA was used to generate transgenic founders in the C57BL/6 XCBA/J background. Founders were subsequently back-crossed to the C57BL/6 albino background. […] Signal data were also quantitated and archived using the Living Image® software. Photons of light were quantitated using an oval region of interest (ROI) of varying sizes depending on the procedure, as described further below.
To test for in vivo effects of GL1001 on basal levels of NF-κB dependent transcription, male NF-κB::Luc mice were subjected to quantitative in vivo imaging of the abdominal area (using a fixed ROT of 2.76×3.7 cm) as described above, immediately before, and at 2, […]

[2] = tested on: activator protein-1 (AP-1); test: In vivo basal reporter luciferase expression in AP-1::Luc mice; parameters: species or system mouse; details: data not shown
[3] = tested on: LPS-induced NF-κB-dependent transcription; test: Luciferase assay of organs extracted from LPS-treated NF-κB::Luc mice; format: in vivo, mouse
Text: For luciferase assays, organs were extracted and snap-frozen in liquid nitrogen. All tissue samples were placed in lysis buffer with inhibitors (Passive Lysis Buffer (Promega) and Complete Mini Protease Inhibitor Cocktail (Roche, Indianapolis, Ind.)), and were homogenized using a Handishear hand-held tissue homogenizer (VirTis, Gardiner, N.Y.). Tissue homogenates were centrifuged and clarified lysates were used for luminometer assays and western blots. For the luminometer assays, Luciferase Assay Substrate (Luciferase Assay System, Promega) was prepared as indicated by the manufacturer and placed in disposable cuvettes. […] Background luminescence readings were obtained and the background readings were subtracted from the luminescent data. Protein concentrations were determined using the BCA Protein Assay Kit (Pierce, Rockford, Ill.) following the manufacturer's protocols and analyzed using a VERSAmax tunable microplate reader and associated Softmax Pro version 3.1.2 software (Molecular Devices, Sunnyvale Calif.). The luminescence for each of the protein lysates was calculated as arbitrary units of light per microgram of protein. […]
GL1001 was further tested for in vivo anti-inflammatory activity by examining its effects on bacterial LPS-induced NF-κB dependent transcription in NF-κB::Luc mice. […] Luciferase signal was quantitated from several regions of interest. […]

ACE2 = biological target: T1, ACE2 (Rattus norvegicus, UniProt Q5EGZ1); test: Acute diclofenac-induced gastric toxicity in rats: ACE2 activity in stomach tissue; format: in vivo; details: Group C: GL1001 oral before diclofenac 50 mg/kg; vehicle-diclofenac Group B 880 ± 39; p<0.0001
T1 construct: from tissue; host or cells: rat stomach (excluding forestomach) homogenate
Protocol: Male Wistar rats were deprived of food but not water for 16 hours prior to oral administration of GL1001 90 mg/kg, incubated for 30 minutes and then given oral diclofenac 50 mg/kg. Each group consisted of 6 rats. As a negative control, one group received vehicle pretreatment, and then received vehicle instead of diclofenac. A positive control group received PGE2 100 μg/kg orally, 30 minutes prior to administration of diclofenac. All treatments were administered by oral gavage.
Three hours after diclofenac treatment, all animals were sacrificed and stomachs were removed and imaged to determine the severity of gastric damage. Additionally, stomach tissue samples were taken to assess disease activity and pharmacodynamic effects. Gastric damage scores were determined from photographic images (Ma & Wallace (2003) Am. J. Physiol. Gastrointest. Liver Physiol. 279; 341-346). Removed stomachs were opened along the greater curvature, pinned out on a wax block, and photographed along a 25 mm ruler reference with a digital 35 mm camera. The lesion area was then determined using enlarged images and computer software (www.scioncorp.co/pages/scion_image_windows.htm) that allows superimposed drawing of the perimeter of a wound and calculation of the area based on the ruler reference. Stomach samples (excluding forestomach) were used for measurements of PGE2 concentration, MPO activity and ACE2 activity. […] Concentration of PGE2 from stomach tissue samples was performed as described by Souza et al. (2003), supra, and quantification was obtained by LC-MS. […] Last, the extent of inhibition of ACE2 activity was determined to establish whether GL1001 was effective in inhibiting its ACE2 target in stomach tissues. The ACE2 activity assay is similar to the method of Vickers et al. (2002) J. Biol. Chem. 277:14838-14843, wherein purified recombinant ACE2 (100 pM) and a quenched fluorescent substrate (100-150 μM APK (7-methoxycoumarin-4-yl)acetyl-Ala-Pro-Lys (2,4-dinitrophenyl)) are used in end-point fluorescence reactions (excitation 320 nm, emission 405 nm). […]
Data are expressed as means with standard errors. […]

T1 sequence (Q5EGZ1 18-805): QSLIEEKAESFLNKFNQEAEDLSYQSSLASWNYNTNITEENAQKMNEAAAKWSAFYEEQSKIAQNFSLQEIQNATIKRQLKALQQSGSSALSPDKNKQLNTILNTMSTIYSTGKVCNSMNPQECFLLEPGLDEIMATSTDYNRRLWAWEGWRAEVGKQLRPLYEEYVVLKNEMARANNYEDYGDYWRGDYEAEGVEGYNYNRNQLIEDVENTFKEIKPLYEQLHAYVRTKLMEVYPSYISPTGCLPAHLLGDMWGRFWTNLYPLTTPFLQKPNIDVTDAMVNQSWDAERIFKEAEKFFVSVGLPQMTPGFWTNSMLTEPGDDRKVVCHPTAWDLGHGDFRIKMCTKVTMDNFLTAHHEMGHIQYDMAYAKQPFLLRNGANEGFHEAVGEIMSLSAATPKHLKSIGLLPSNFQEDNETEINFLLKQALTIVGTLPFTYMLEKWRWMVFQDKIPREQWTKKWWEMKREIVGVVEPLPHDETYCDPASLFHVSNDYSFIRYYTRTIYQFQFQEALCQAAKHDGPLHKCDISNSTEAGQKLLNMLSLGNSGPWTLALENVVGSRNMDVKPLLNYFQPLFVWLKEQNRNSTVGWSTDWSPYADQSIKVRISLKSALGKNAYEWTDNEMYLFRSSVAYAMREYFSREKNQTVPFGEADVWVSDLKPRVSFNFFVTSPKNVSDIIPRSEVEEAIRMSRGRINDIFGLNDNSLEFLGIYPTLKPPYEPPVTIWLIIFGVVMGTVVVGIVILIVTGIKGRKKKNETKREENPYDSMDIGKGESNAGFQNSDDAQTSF

CC(C)C[C@H](N[C@@H](Cc1cncn1Cc1cc(Cl)cc(Cl)c1)C(=O)O)C(=O)O [GL1001, (S,S)-2-[1-carboxy-2-[3-(3,5-dichlorobenzyl)-3H-imidazol-4-yl]-ethylamino]-4-methylpentanoic acid]
inhibition of basal in vivo levels of NF-κB dependent transcription in abdominal ROI ([1]; 300 mg/kg s.c., p<0.01): over 40% | inhibition of basal in vivo levels of NF-κB dependent transcription in abdominal ROI ([1]; both lower doses s.c.): lesser but still significant extents | effect on basal in vivo levels of reporter luciferase expression [2]: no significant effect | reduction of LPS-induced NF-κB-dependent transcription in stomachs ([3]; 0.5 mg/kg LPS and GL1001 30 mg/kg vs LPS alone, FIG. 5): about 37 fold | decrease in LPS-induced NF-κB signaling in other organs ([3]; 0.5 mg/kg LPS and GL1001 30 mg/kg, pancreas, uterus, liver, kidney, spleen, small and large intestine, lymph nodes, cecum, ovary, brain, heart, lung): no statistically significant decrease | Gastric ACE2 activity (ACE2): 436 pmol/mg and 436 ± 20 pmol/mg

Reference: US20100035848A1, “THERAPY FOR DISORDERS OF THE PROXIMAL DIGESTIVE TRACT” (priority 2008, published 2010)
